Measurements: PubChem BioAssay AID1963834 (Molecular Pharmacology Branch, DTP, NCI, 2024)
Several values for one entry are separate records, joined by “and”; a condition that tells them apart may be missing. Identical values can stand only once.

System: 873145-292-R-J1-PDC complex spheroid viability
Assay: Anticancer human tumor 873145-292-R-J1-PDC patient-derived renal clear cell carcinoma cell line growth inhibition [POLQ]
Conditions: for viability, T/C: stronger effect = lower value
Protocol: Multicellular complex tumor spheroid response to Polymerase (POL) inhibitors (novobiocin, ART-558, RP6685) in combination with a variety of drugs and investigational agents in selected tumor cell lines
The POL inhibitors (novobiocin, ART-558, and RP6685) were evaluated both individually and in combination with standard of care and investigational anticancer small molecules within a complex spheroid model of solid tumors. . Complex spheroids include a stromal component modeled by human endothelial cells (HUVEC) and fibroblasts modeled by human mesenchymal stem cells (MSCs). The concentration ranges selected for each drug and investigational agent were based upon clinically achievable concentrations if the clinical Cmax of the agent was known.
Compounds. The drugs and investigational agents: novobiocin (NSC847541), ART-558 (NSC835418), RP-6685 (NSC848927), peposertib (NSC802822), ceralasertib (NSC780249), elimusertib (NSC800525), camonsertib (NSC841442), AZD-1390 (NSC803789), olaparib (NSC753686), talazoparib (NSC767125), rucaparib (NSC756644), sotorasib (NSC818433), MRTX-1133 (NSC836407), SN-38 (NSC673596), topotecan (NSC609699), epotoside (NSC141540), doxorubicin (NSC123127), gemcitabine (NSC613327), 5-fluorouracil (NSC19893), paclitaxel (NSC125973), vemurafenib (NSC761431), MSA-2 (NSC828583), SN-011 (NSC837082), adavosertib (NSC754352), prexasertib (NSC758257), carboplatin (NSC241240) and oxaliplatin (NSC266046), were obtained from the National Cancer Institute (NCI) Developmental Therapeutics Program Chemical Repository (21). The FDA-approved anticancer drug set is available from the Developmental Therapeutics Program at https://dtp.cancer.gov/organization/dscb/obtaining/. […] The stock solutions were prepared in dimethyl sulfoxide (DMSO, Sigma-Aldrich, St. Louis, MO, cat. D2650), except for the platinum compounds which were prepared in saline (Quality Biological, Gaithersburg, MD, cat. 114-055-101), at 800-fold the tested concentration and stored at -70 degrees C prior to their use. All drugs and investigational agents were tested over a range starting from a high concentration at or near the clinical Cmax and decreasing in half-log increments. If the clinical Cmax for an agent had not been determined, the highest concentration tested was 10 microM, except for SN-38, which was tested at a high concentration of 1 microM.
Cell Culture. All cells were maintained in an incubator at 37 degrees C and 5% CO2 with 95% humidity. The PDC lines were cultured according to standard operating procedures established by the NCI PDMR (https://pdmr.cancer.gov). Table 3 of the manuscript, lists the cell lines along with the number of the three cell types plated to form the mct-spheroids and media for tumor cell growth. After thawing, all PDC lines, except 997537-175-T-J1-PDC and 415267-285-R-J2-PDC, were cultured in Matrigel-coated flasks prepared with a working solution of 1X Ham's F-12 nutrient mix, without supplementation (Thermo Fisher Scientific, cat. 11765054), 100 U/mL penicillin-streptomycin (Thermo Fisher Scientific, cat. 15140122), and 2.5% Matrigel (Corning Inc., Corning, NY, cat. 354248) for the first three passages. The two PDC lines 997537-175-T-J1-PDC and 415267-285-R-J2-PDC were cultured on uncoated flasks. The 857933-349-R-J2-PDC line was cultured in 6C/Colon 1B media containing advanced DMEM/F-12 (Thermo Fisher Scientific, cat. 12634028), 10 mM HEPES (Thermo Fisher Scientific, cat. 15630080), 1X GlutaMAX supplement (Thermo Fisher Scientific, cat. 35050061), 0.1 mg/mL primocin (InvivoGen, San Diego, CA, cat. ant-pm-2), 10% defined fetal bovine serum, heat inactivated (HyClone Laboratories Inc., Logan, UT, cat. SH30070.03HI), 50% L-WRN conditioned media (ATCC, cat. CRL-3276), 1.25 mM N-Acetyl-L-cysteine (Sigma-Aldrich, cat. A9165), 10 mM nicotinamide (Sigma-Aldrich, cat. N0636), 1X B-27 supplement (Thermo Fisher Scientific, cat. 17504044), 1X N-2 supplement (Thermo Fisher Scientific, cat. […]
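Note: spheroids exposed to compounds for 7 days before viability readout.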
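Throughout, for viability, T/C: luminescence signal used as surrogate for viable cell content; 100% = DMSO vehicle control viability.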

CC[C@@]1(O)C(=O)OCc2c1cc1n(c2=O)Cc2cc3c(CN(C)C)c(O)ccc3nc2-1 + COC1C(OC(N)=O)C(O)C(Oc2ccc3c(O)c(NC(=O)c4ccc(O)c(CC=C(C)C)c4)c(=O)oc3c2C)OC1(C)C
IC50 (curve of first compound, second compound 0.0316 µM): 94.4 nM
IC50 (curve of first compound, second compound 0.1 µM): > 100 nM
IC50 (curve of first compound, second compound 0.316 µM): > 100 nM
IC50 (curve of first compound, second compound 1 µM): 91.9 nM
IC50 (curve of first compound, second compound 3.16 µM): 95.5 nM
IC50 (curve of first compound, second compound 10 µM): > 100 nM
viability, T/C (second compound 0.0316 µM, first compound 0.000316 µM): 100%
viability, T/C (second compound 0.0316 µM, first compound 0.001 µM): 98.3%
viability, T/C (second compound 0.0316 µM, first compound 0.00316 µM): 96.2%
viability, T/C (second compound 0.0316 µM, first compound 0.01 µM): 90%
viability, T/C (second compound 0.0316 µM, first compound 0.0316 µM): 91.5%
viability, T/C (second compound 0.0316 µM, first compound 0.1 µM): 47.6%
viability, T/C (second compound 0.1 µM, first compound 0.000316 µM): 112%
viability, T/C (second compound 0.1 µM, first compound 0.001 µM): 97.6%
viability, T/C (second compound 0.1 µM, first compound 0.00316 µM): 90.8%
viability, T/C (second compound 0.1 µM, first compound 0.01 µM): 96.3%
viability, T/C (second compound 0.1 µM, first compound 0.0316 µM): 80.6%
viability, T/C (second compound 0.1 µM, first compound 0.1 µM): 48.9%
viability, T/C (second compound 0.316 µM, first compound 0.000316 µM): 104%
viability, T/C (second compound 0.316 µM, first compound 0.001 µM): 89.3%
viability, T/C (second compound 0.316 µM, first compound 0.00316 µM): 92.9%
viability, T/C (second compound 0.316 µM, first compound 0.01 µM): 110%
viability, T/C (second compound 0.316 µM, first compound 0.0316 µM): 81.5%
viability, T/C (second compound 0.316 µM, first compound 0.1 µM): 53.9%
viability, T/C (second compound 1 µM, first compound 0.000316 µM): 98.4%
viability, T/C (second compound 1 µM, first compound 0.001 µM): 95.3%
viability, T/C (second compound 1 µM, first compound 0.00316 µM): 92.8%
viability, T/C (second compound 1 µM, first compound 0.01 µM): 91%
viability, T/C (second compound 1 µM, first compound 0.0316 µM): 80.3%
viability, T/C (second compound 1 µM, first compound 0.1 µM): 47.3%
viability, T/C (second compound 3.16 µM, first compound 0.000316 µM): 101%
viability, T/C (second compound 3.16 µM, first compound 0.001 µM): 97.8%
viability, T/C (second compound 3.16 µM, first compound 0.00316 µM): 92.7%
viability, T/C (second compound 3.16 µM, first compound 0.01 µM): 90.9%
viability, T/C (second compound 3.16 µM, first compound 0.0316 µM): 75.1%
viability, T/C (second compound 3.16 µM, first compound 0.1 µM): 48.6%
viability, T/C (second compound 10 µM, first compound 0.000316 µM): 104%
viability, T/C (second compound 10 µM, first compound 0.001 µM): 100%
viability, T/C (second compound 10 µM, first compound 0.00316 µM): 91.7%
viability, T/C (second compound 10 µM, first compound 0.01 µM): 98.6%
viability, T/C (second compound 10 µM, first compound 0.0316 µM): 71.8%
viability, T/C (second compound 10 µM, first compound 0.1 µM): 50.7%

C=CCn1c(=O)c2cnc(Nc3ccc(N4CCN(C)CC4)cc3)nc2n1-c1cccc(C(C)(C)O)n1
viability, T/C (compound 0.00316 µM): 106% and 97.8% and 112%
viability, T/C (compound 0.01 µM): 95.9% and 105% and 90.5%
viability, T/C (compound 0.0316 µM): 104% and 92.5% and 97.3%
viability, T/C (compound 0.1 µM): 101% and 97.8% and 97.9%
viability, T/C (compound 0.316 µM): 76.4% and 84.9% and 85.7%
viability, T/C (compound 1 µM): 74.7% and 77.3% and 80%
IC50 (curve of compound): > 1000 nM

CC1COCCN1c1cc(C2(S(C)(=N)=O)CC2)nc(-c2ccnc3[nH]ccc23)n1 (stereo not given)
viability, T/C (compound 0.0316 µM): 91.7% and 96% and 106%
viability, T/C (compound 0.1 µM): 97.2% and 92.7% and 96.5%
viability, T/C (compound 0.316 µM): 113% and 91.9% and 99.5%
viability, T/C (compound 1 µM): 88.5% and 94.4% and 104%
viability, T/C (compound 3.16 µM): 81.9% and 85.5% and 81.5%
viability, T/C (compound 10 µM): 58% and 64.2% and 54.1%
IC50 (curve of compound): > 10000 nM

C=CC(=O)N1CCN(c2nc(=O)n(-c3c(C)ccnc3C(C)C)c3nc(-c4c(O)cccc4F)c(F)cc23)C(C)C1 (stereo not given)
viability, T/C (compound 0.0316 µM): 98.3% and 103% and 94.9%
viability, T/C (compound 0.1 µM): 99.5% and 99.4% and 98.3%
viability, T/C (compound 0.316 µM): 107% and 125% and 109%
viability, T/C (compound 1 µM): 118% and 113% (2×)
viability, T/C (compound 3.16 µM): 137% and 134% and 116%
viability, T/C (compound 10 µM): 121% and 145% and 124%
IC50 (curve of compound): > 10000 nM

CCc1cc2c(N3CCc4c(cc(Cn5ccnc5)cc4-c4cn(C)nc4C(F)(F)F)C3=O)ccnc2c(OC)n1
viability, T/C (compound 0.0316 µM): 107% and 99% and 101%
viability, T/C (compound 0.1 µM): 89.9% and 92.2% and 96.8%
viability, T/C (compound 0.316 µM): 89.1% and 97.3% and 84.2%
viability, T/C (compound 1 µM): 92.1% and 87.7% and 87.1%
viability, T/C (compound 3.16 µM): 86.4% and 98% and 86.1%
viability, T/C (compound 10 µM): 75.7% and 91.9% and 81.5%
IC50 (curve of compound): > 10000 nM
